Measured values as given in patent publication US20220315934A1, “HETEROLOGOUS RIBOSOME GENERATION, […] COMPOSITIONS THEREOF” (priority 2019, published 2022).

What was measured:
Format in all cases: cell-based
[1] = test system: E. coli strain S4246; experiment: Antibiotic sensitivity/resistance of erythromycin-resistant strain S4246
Method: The erythromycin-resistant strain S4246 was generated using conventional recombineering (76, 77). Briefly, chemically competent S2060 cells were transformed with pKD46 (77) and plated on 2×YT agar plates supplemented with 50 μg mL^−1 carbencillin at 30° C. A single colony was picked, grown at 30° C. in 2×YT liquid medium supplemented with 50 μg mL^−1 carbencillin and 10 mM arabinose, and made chemically competent when the culture reached the appropriate OD600. Chemically competent S2060/pKD46 cells were transformed with the phosphothiorated recombineering oligonucleotide AB5708 (5′-C*T*C*A*[…] CCGCG […]-3′, SEQ ID NO: 403; phosphothirate bonds indicated as *, introduced mutation is bolded) to introduce the rrlA-H A2058U mutation on replichore 2 (76). Following recovery for 3 hours at 30° C., transformed cells were plated on 2×YT agar plates supplemented with 1000 μg mL^−1 erythromycin and incubated at 37° C. to cure the resident pKD46 plasmid. Following overnight growth, single colonies were picked into 2×YT liquid medium supplemented with 50 μg mL^−1 streptomycin, 10 μg mL^−1 tetracycline and 1000 μg mL^−1 erythromycin and allowed to grow overnight at 37° C. To assess the degree of rrlA-H mutagenesis, cultures were used as PCR templates using primers AB5710 (5′-[…]-3′, SEQ ID NO: 404) and AB5711 (5′-[…]-3′, SEQ ID NO: 405), and the PCR products were treated with the endonuclease HpyCH4III (New England Biolabs) according to the manufacturer's guidelines. Wildtype rrlA-H genotypes show no digestion under these conditions, whereas complete conversion results in complete PCR product digestion. Intermediate (incomplete) digestion indicated in incomplete conversion of all seven genomic alleles. The completely converted strain S4246 was confirmed to be sensitive to the following antibiotics (ensures no resistance crosstalk with plasmid-borne markers): carbenicillin (50 μg mL^−1), spectinomycin (100 μg mL^−1), chloramphenicol (40 μg mL^−1), and kanamycin (30 μg mL^−1). The strain was confirmed to be resistant to the following antibiotics: streptomycin (50 μg mL^−1), tetracycline (10 μg mL^−1), and erythromcyin (1000 μg mL^−1).

[2] = test system: episome-derived E. coli orthogonal ribosome LSUs; experiment: Erythromycin-dependent (ermCL) orthogonal sfGFP reporter in S4246, E. coli orthogonal ribosomes
Description: (§1) To assess the degree of association between E. coli LSUs and heterologous SSUs, an erythromycin-dependent reporter was developed to distinguish between genome- (E. coli; erythromycin-resistant) and episome-derived (heterologous; erythromycin-sensitive) LSUs. The erythromycin-resistant strain S4246 was developed, wherein all seven genomic 23S genes (rrlA-H) of 52060 cells were mutated (A2058U) (75) to mitigate macrolide binding in the ribosomal exit tunnel (FIG. 18A) (76, 77). rrlA-H A2058U sequences are presented in Table 1.
(§2) Next, the ErmC leader peptide, ermCL, was introduced ahead of the orthogonal sfGFP reporter, ensuring that reporter translation would be abrogated via erythromycin- and ermCL-dependent translational stalling (78) (FIG. 18B).
To validate this sensor, the erythromycin sensitivity of an episome-derived E. coli orthogonal ribosome encoding or lacking the identical A2058U mutation was assessed. A recently described stapled E. coli ribosome (d2d8) (7) that preferentially uses a covalently linked 23S rRNA, with or without the identical mutation was used as a control.

[3] = test system: heterologous ribosomes; experiment: Erythromycin-dependent orthogonal sfGFP reporter in S4246, heterologous ribosomes
Description: as §1, §2
This analysis was next extended to a set of 20 functional heterologous ribosomes.

[4] = heterologous ribosomes bearing intermediate homology (92.9-97.0%)

SMILES: [H]/N=C(/N)N[C@H]1[C@H](O)[C@@H](O)[C@H](O[C@@H]2O[C@@H](C)[C@](O)(C=O)[C@H]2O[C@@H]2O[C@@H](CO)[C@H](O)[C@@H](O)[C@@H]2NC)[C@@H](N/C(N)=N\[H])[C@@H]1O [streptomycin]
- resistance of strain S4246 ([1]; streptomycin 50 μg mL^−1): resistant

SMILES: O=C(N[C@H](CO)[C@H](O)c1ccc([N+](=O)[O-])cc1)C(Cl)Cl [chloramphenicol]
- sensitivity of strain S4246 ([1]; chloramphenicol 40 μg mL^−1): sensitive

SMILES: CC[C@H]1OC(=O)[C@H](C)[C@@H](O[C@H]2C[C@@](C)(OC)[C@@H](O)[C@H](C)O2)[C@H](C)[C@@H](O[C@@H]2O[C@H](C)C[C@H](N(C)C)[C@H]2O)[C@](C)(O)C[C@@H](C)C(=O)[C@H](C)[C@@H](O)[C@]1(C)O [erythromycin]
- change in orthogonal translation upon erythromycin dosing ([2]; A2058U-LSUs, free and stapled (d2d8)): no appreciable change
- change in orthogonal translation upon erythromycin dosing ([2]; unmutated LSUs, dose-dependent): marked reduction
- sfGFP signal upon erythromycin treatment [3, 4]: extensive reduction
- viability upon erythromycin treatment [3, 4]: no associated viability defect
- sfGFP translation and cell viability upon erythromycin treatment ([3]; heterologous ribosomes with high 16S sequence identity to E. coli (≥99.2%)): dramatic reduction
- sfGFP signal upon erythromycin treatment ([3]; more divergent heterologous ribosomes (79.3-90.3%)): decreased minimally
- MIC ([1]; Escherichia coli, S4246): > 1000 µg/mL
- resistance of strain S4246 ([1]; erythromycin 1000 μg mL^−1): resistant

SMILES: CN[C@@H]1[C@H](O)[C@H](NC)[C@H]2O[C@@]3(O)C(=O)C[C@@H](C)O[C@H]3O[C@@H]2[C@H]1O [spectinomycin]
- sensitivity of strain S4246 ([1]; spectinomycin 100 μg mL^−1): sensitive

SMILES: CC1(C)S[C@@H]2[C@H](NC(=O)C(C(=O)O)c3ccccc3)C(=O)N2[C@H]1C(=O)O (stereo partly drawn) [carbenicillin]
- sensitivity of strain S4246 ([1]; carbenicillin 50 μg mL^−1): sensitive
